Experimental data as given in patent publication US10058094B2, “Antimicrobial sanitizer compositions and methods of making the same” (priority 2013, dated 2018).

Assays:
[1] = test system: Salmonella typhi ATCC 6539; assay: Chlorine equivalence test; type: cell-based; parameters: key to growth of organism, Subculture Series 8 / growth of organism, Subculture Series 9 / growth of organism, Subculture Series 10 / growth of organism, Subculture Series 1 / growth of organism, Subculture Series 2 / growth of organism, Subculture Series 3 / growth of organism, Subculture Series 4 / growth of organism, Subculture Series 5 / growth of organism, Subculture Series 6 / growth of organism, Subculture Series 7: growth of organism (+); no growth of organism (0); conditions: for growth of organism, Subculture Series 1 / growth of organism, Subculture Series 2 / growth of organism, Subculture Series 3 / growth of organism, Subculture Series 4 / growth of organism, Subculture Series 5 / growth of organism, Subculture Series 6 / growth of organism, Subculture Series 7 / growth of organism, Subculture Series 8 / growth of organism, Subculture Series 9 / growth of organism, Subculture Series 10: Salmonella typhi
Protocol: (§1) The Table 1 sanitizer was tested to determine its efficiency at reducing bacteria on the skin via a chlorine equivalence test. Samples were prepared of Staphylococcus aureus ATCC 6538 (7.6×10^8 colony forming units per mL of text mixture) and Salmonella typhi ATCC 6539 (1.2×10^8 colony forming units per mL of text mixture). The samples were then treated against a NaOCl control at 200 ppm, 100 ppm, and 50 ppm, as well as the sanitizer disclosed herein. Thereafter, ten subculture series were taken.

[2] = test system: Staphylococcus aureus ATCC 6538; assay: Chlorine equivalence test; type: cell-based; parameters: key to growth of organism, Subculture Series 8 / growth of organism, Subculture Series 9 / growth of organism, Subculture Series 10 / growth of organism, Subculture Series 1 / growth of organism, Subculture Series 2 / growth of organism, Subculture Series 3 / growth of organism, Subculture Series 4 / growth of organism, Subculture Series 5 / growth of organism, Subculture Series 6 / growth of organism, Subculture Series 7: growth of organism (+); no growth of organism (0); conditions: for growth of organism, Subculture Series 1 / growth of organism, Subculture Series 2 / growth of organism, Subculture Series 3 / growth of organism, Subculture Series 4 / growth of organism, Subculture Series 5 / growth of organism, Subculture Series 6 / growth of organism, Subculture Series 7 / growth of organism, Subculture Series 8 / growth of organism, Subculture Series 9 / growth of organism, Subculture Series 10: Staphylococcus aureus
Protocol: as §1

## [Na+].[O-]Cl [NaOCl]
[1]; Salmonella typhi ATCC 6539, NaOCl control at 200 ppm, 100 ppm, and 50 ppm, ten subculture series
  growth of organisms over the ten subculture series: eventually showed growth of organisms
[1]; concentration 50 ppm
  growth of organism, Subculture Series 1: 0
  growth of organism, Subculture Series 2: 0
  growth of organism, Subculture Series 3: +
  growth of organism, Subculture Series 4: +
  growth of organism, Subculture Series 5: +
  growth of organism, Subculture Series 6: +
  growth of organism, Subculture Series 7: +
  growth of organism, Subculture Series 8: +
  growth of organism, Subculture Series 9: +
  growth of organism, Subculture Series 10: +
[1]; concentration 100 ppm
  growth of organism, Subculture Series 1: 0
  growth of organism, Subculture Series 2: 0
  growth of organism, Subculture Series 3: 0
  growth of organism, Subculture Series 4: +
  growth of organism, Subculture Series 5: +
  growth of organism, Subculture Series 6: +
  growth of organism, Subculture Series 7: +
  growth of organism, Subculture Series 8: +
  growth of organism, Subculture Series 9: +
  growth of organism, Subculture Series 10: +
[1]; concentration 200 ppm
  growth of organism, Subculture Series 1: 0
  growth of organism, Subculture Series 2: 0
  growth of organism, Subculture Series 3: 0
  growth of organism, Subculture Series 4: 0
  growth of organism, Subculture Series 5: 0
  growth of organism, Subculture Series 6: 0
  growth of organism, Subculture Series 7: +
  growth of organism, Subculture Series 8: +
  growth of organism, Subculture Series 9: +
  growth of organism, Subculture Series 10: +
[2]; Staphylococcus aureus ATCC 6538, NaOCl control at 200 ppm, 100 ppm, and 50 ppm, ten subculture series
  growth of organisms over the ten subculture series: eventually showed growth of organisms
[2]; concentration 50 ppm
  growth of organism, Subculture Series 1: 0
  growth of organism, Subculture Series 2: +
  growth of organism, Subculture Series 3: +
  growth of organism, Subculture Series 4: +
  growth of organism, Subculture Series 5: +
  growth of organism, Subculture Series 6: +
  growth of organism, Subculture Series 7: +
  growth of organism, Subculture Series 8: +
  growth of organism, Subculture Series 9: +
  growth of organism, Subculture Series 10: +
[2]; concentration 100 ppm
  growth of organism, Subculture Series 1: 0
  growth of organism, Subculture Series 2: 0
  growth of organism, Subculture Series 3: +
  growth of organism, Subculture Series 4: +
  growth of organism, Subculture Series 5: +
  growth of organism, Subculture Series 6: +
  growth of organism, Subculture Series 7: +
  growth of organism, Subculture Series 8: +
  growth of organism, Subculture Series 9: +
  growth of organism, Subculture Series 10: +
[2]; concentration 200 pm
  growth of organism, Subculture Series 1: 0
  growth of organism, Subculture Series 3: 0
  growth of organism, Subculture Series 8: +
  growth of organism, Subculture Series 10: +
[2]; concentration 200 ppm
  growth of organism, Subculture Series 2: 0
  growth of organism, Subculture Series 4: 0
  growth of organism, Subculture Series 5: 0
  growth of organism, Subculture Series 6: +
  growth of organism, Subculture Series 7: +
  growth of organism, Subculture Series 9: +
